In this assay the target is T1, TP^Δ328 (Homo sapiens, UniProt P21731).
T1 construct: expressed in transfected cells
T1 sequence (P21731 1-328): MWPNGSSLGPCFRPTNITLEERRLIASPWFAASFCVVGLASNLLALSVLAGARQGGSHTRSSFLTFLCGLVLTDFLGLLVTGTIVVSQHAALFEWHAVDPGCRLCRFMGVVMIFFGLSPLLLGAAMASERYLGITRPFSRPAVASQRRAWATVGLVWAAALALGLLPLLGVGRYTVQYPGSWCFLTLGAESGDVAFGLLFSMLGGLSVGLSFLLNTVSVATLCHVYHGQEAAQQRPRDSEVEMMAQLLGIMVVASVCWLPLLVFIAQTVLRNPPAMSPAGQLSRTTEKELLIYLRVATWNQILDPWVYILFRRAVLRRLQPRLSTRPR
The assay is described as follows: IP3 generation, HEK.TP^Δ328 cells. It counts as cell-based. Conditions: 1 μM U46619 2 min, washout, restimulation at 60 min. The method, then:
Intracellular IP3 levels were measured as previously described [[33,43]]. Briefly, cells were harvested by scraping, washed twice in ice-cold PBS and resuspended at approximately 2 × 10^6 cells/200 μl in HEPES-buffered saline (HBS; […], 4.7 mM KCl, 2.2 mM CaCl2, 1.2 mM KH2PO4, 11 mM glucose, 15 mM HEPES–NaOH, pH 7.4), 10 mM LiCl (Walsh et al., 2000). […] Thereafter, cells were stimulated with 1 μM U46619 at 37 °C for 2 min. To assess agonist-mediated homologous desensitization, cells (2 × 10^6 cells/200 μl) were stimulated with 1 μM U46619 at 37 °C for 2 min (Primary stimulation); thereafter, cells were collected by centrifugation (900×g, 5 min); were washed once in 200 μl HBS, 10 mM LiCl and finally resuspended in 200 μl HBS, 10 mM LiCl and were left to recover for 60 min; thereafter, cells were re-stimulated with 1 μM U46619 at 37 °C for 2 min (secondary stimulation). All ligands and […] were pre-diluted in HBS such that 50 μl added to 200 μl of cell suspension in HBS gave the desired final concentration. To determine basal IP3 levels, an equivalent volume (50 μl) of the vehicle HBS was added instead of ligand. The level of IP3 produced was quantified by radio competition assay essentially as described. […]

For the compound `CCCCC[C@H](O)/C=C/[C@@H]1[C@@H](C/C=C\CCCC(=O)O)[C@H]2CO[C@@H]1C2` [U46619], the “IP3 generation following secondary restimulation after U46619 pre-incubation” value was “no significant effect”.

The record behind these values is paper PMC2680961, “Homologous desensitization of signalling by the alpha (α) isoform of the human thromboxane A2 receptor: A specific role for nitric oxide signalling” (Biochimica et Biophysica Acta, 2007).
